The values below are quoted from earlier work in patent US20040223951A1, “Combination therapy for cancer” (Schering Corporation, priority 2000, published 2004).

For data set [1] the following is noted: administered orally.

For `Cn1nnc2c(C(N)=O)ncn2c1=O` [Temozolomide, 3,4-dihydro-3-methyl-4-oxoimidazo-[5,1-d]1,2,3,4-tetrazin-8-carboximide], in the data set with advanced melanoma (Journal of Clinical Oncology, Vol. 13, No. 4, 1995, pp. 910-913), the “clinical response, % of patients with advanced melanoma” value was 21%. In addition, the “clinical responses, % of patients having advanced melanoma” value in the data set with advanced melanoma (Newlands ES, et al., Br J Cancer 65 (2) 287-291, 1992) was 17%. Further, in data set [1], the bioavailability result is recorded as “approximately 100%”. For the same molecule, for the setting “extended daily dosing of TMZ, Brock et al. Cancer Res. 1998;58:4363”, the “plasma concentration of active metabolite MTIC versus conventional dosing” value is listed as “higher plasma concentration of the active metabolite MTIC than conventional dosing”. The “plasma concentrations of MTIC versus DTIC” value (oral TMZ compared with IV DTIC) is on record as “higher plasma concentrations of MTIC than IV administration of DTIC”.
